Results: patent publication US20250090541A1, “Methods for Treating Neurodegenerative Disorders” (Praetego Inc, priority 2022, published 2025)

How the values were obtained:
[1] = Mortality and apparent toxicity, 25 weeks in human tau mice; format: in vivo; conditions: 1 and 5 mg/kg in drinking water
Procedure: (§1) Female and male human tau mice (Jax #005491) were treated daily for 25 weeks with PTG-630 trihydrochloride at 1 and 5 mg/kg in drinking water starting at 10 weeks of age (before cognitive deficits appear).
• 1—Control (C57B16), N=7 male, N=7 female, Final N=6 male, N=6 female • 2—htau, N=7 male, N=7 female, Final N=7 male, N=6 female • 3—htau+PTG-630 1 mg/kg drinking water, N=7 male, N=7 female, Final N=7 male, N=7 female • 4—htau+PTG-630 5 mg/kg drinking water, N=7 male, N=7 female, Final N=6 male, N=7 female
One mouse in group 4 died at week 8 from tooth occlusion.

human tau mice [2] = assay: Barnes maze long-term memory, human tau mice; format: in vivo; conditions: by week 23 of treatment (between week 19 and 23), male and female combined
From the text: The human tau mouse is a model of sporadic dementia that expresses human non-mutant tau (6 isoforms) in the absence of endogenous mouse tau. The model develops age-associated pathology, with hyperphosphorylated tau detected in cell bodies and dendrites by 3 months of age (Andorfer et al., 2003; J Neurochem 86, 582-590, doi:10.1046/j.1471-4159.2003.01879.x). These mice display abnormal spatial learning by 6 months of age and impaired learning in the Morris water maze with memory loss by 12 months of age, as well as memory deficits in the Barnes maze by 6 months of age (Marquez et al, 2021).
as §1
Learning and memory were assessed using the Barnes maze test and the object recognition test at 6-8, 12-13, 18-19 and 24-25 weeks. Corneal nerves were imaged by corneal confocal microscopy (CCM) at week 6, 9, 12, 18 and 25. Data represent male and female results combined, mean±sem.
Using the Barnes maze test, long-term memory was assessed between week 13 and 19 and between week 19 and 23 of treatment (FIG. 1A, B).

human tau mice [3] = assay: Thermal response to heat (hypoalgesia), human tau mice; format: in vivo
Procedure: as §1
(§2) Tactile and thermal responses, measures of associated damage to the peripheral nervous system (PNS), were assessed at 8, 14, 18 and 24 weeks. hTau mice developed significant tactile allodynia measured with manual von Frey filaments at the 14 weeks time point (FIG. 4).
Human tau mice develop significant hypoalgesia (FIG. 5).

Drebrin = assay: Western blot of hippocampus, human tau mice: Drebrin; format: in vivo; conditions: 12 weeks of treatment in drinking water
From the text: Mouse Hippocampus were processed for Western blotting analysis of (A) Drebrin (actin binding protein in dendritic spines, role in neuronal growth, a decrease=contributing factor in the pathogenesis of memory disturbance), (B) PSD95 (a post-synaptic protein, role in the regulation of excitatory synapse maturity), and (C) NeuN (neuronal nuclear antigen, biomarker for neurons, decrease=neuronal loss) (FIG. 3).

[4] = Oral pharmacokinetics and tissue distribution of PTG-630 (blood brain barrier penetration); format: in vivo, Sprague-Dawley rats; parameters: AUC(0-t) / AUC(0-inf): concentration or dose not given beside the values; conditions: for concentration at 0.5 h: 0.50 h
From the text: This was a study in male Sprague-Dawley rats. The primary objective was to assess the IV and PO pharmacokinetics of PTG-630. The secondary objectives were to assess tissue distribution after oral administration of PTG-630 (free base form) and the renal excretion, hepatic extraction efficiency and bioavailability of PTG-630.
Twelve non-cannulated animals were arbitrarily assigned to groups upon arrival and housed together throughout the experiment. The animals were acclimated to their designated housing for at least 24 hours before the first day of dosing. PTG-630 was formulated in 0.5% methyl cellulose and 0.1% Tween 20 in water for injection and administered to animals by mouth (PO) with blood and tissue samples collected at predetermined time points. Right thigh muscle, liver, brain, right sciatic nerve, and right kidney were collected at the terminal time points. These samples were collected and placed into individually labeled tubes and frozen at −20° C. Tissues samples were analyzed for concentration of PTG-630.

human tau mice [5] = assay: Tactile allodynia (manual von Frey filaments), human tau mice; format: in vivo; conditions: 5 mg/kg, after 14 weeks of treatment
Procedure: as §1, §2

[6] = male, Sprague-Dawley, rat, brain, po
[7] = male, Sprague-Dawley, rat, kidney, po
[8] = male, Sprague-Dawley, rat, liver, po
[9] = male, Sprague-Dawley, rat, muscle, po
[10] = male, Sprague-Dawley, rat, plasma, po
[11] = male, Sprague-Dawley, rat, sciatic nerve, po
[12] = male, Sprague-Dawley, rat, Brain, PO, mean
[13] = male, Sprague-Dawley, rat, Kidney, PO, mean
[14] = male, Sprague-Dawley, rat, Liver, PO, mean
[15] = male, Sprague-Dawley, rat, Muscle, PO, mean
[16] = male, Sprague-Dawley, rat, Plasma, PO, mean
[17] = male, Sprague-Dawley, rat, Sciatic Nerve, PO, mean

## Cc1ncc(CN2CCOCC2)c(-c2ncc[nH]2)c1O [PTG-630, 4-(1H-imidazol-2-yl)-2-methyl-5-(morpholinomethyl)pyridin-3-ol]
[1]
  apparent toxicity: No toxicity was apparent
Human tau mice [2]
  long-term memory impairment in Barnes maze: significantly prevented
Human tau mice [3]; 1 mg/kg, remained for the rest of the study
  thermal hypoalgesia: significant by 14 weeks of treatment
Human tau mice [3]; 5 mg/kg, by 8 weeks of treatment and for the duration of the study
  thermal hypoalgesia: significantly ameliorated
Human tau mice [3]; FIG. 5 legend, after 24 weeks of treatment
  thermal responses to heat: amelioration of hypoalgesia
Drebrin
  reduced drebrin levels in hippocampus: significantly (p<0.05) ameliorated
[4]; Brain, 24 h, PO, mean
  Concentration: BLQ
[4]; Brain, PO
  % Extrap: 23.7%
[4]; Kidney, 24 h, PO, mean
  Concentration: BLQ
[4]; Kidney, PO
  % Extrap: 14.0%
[4]; Liver, 24 h, PO, mean
  Concentration: BLQ
[4]; Liver, PO
  % Extrap: 5.72%
[4]; Muscle, 24 h, PO, mean
  Concentration: BLQ
[4]; Muscle, PO
  % Extrap: 30.7%
[4]; Plasma, PO
  % Extrap: 1.13%
[4]; Sciatic Nerve, 24 h, PO, mean
  Concentration: BLQ
[4]; any tissue except plasma, 24 hours post dose
  detectability in tissues 24 hours post dose: not detectable
[4]; brain vs plasma
  Half-life in brain relative to plasma: 1.3 times
[4]; liver, kidney, brain, sciatic nerve, muscle
  quantifiability in tested tissues: quantifiable in all tested tissues
[4]; [6]
  AUC(0-inf): 6720 ng·h/mL
  AUC(0-t): 5130 ng·h/mL
  Cmax: 1990 ng/mL
  Tmax: 1 h
  half-life: 272 min
[4]; [7]
  AUC(0-inf): 11400 ng·h/mL
  AUC(0-t): 9770 ng·h/mL
  Cmax: 3880 ng/mL
  Tmax: 1 h
[4]; [8]
  AUC(0-inf): 22000 ng·h/mL
  AUC(0-t): 20700 ng·h/mL
  Cmax: 6350 ng/mL
  Tmax: 1 h
[4]; [9]
  AUC(0-inf): 3820 ng·h/mL
  AUC(0-t): 2650 ng·h/mL
  Cmax: 1030 ng/mL
  Tmax: 1 h
[4]; [10]
  AUC(0-inf): 8700 ng·h/mL
  AUC(0-t): 8600 ng·h/mL
  Cmax: 1160 ng/mL
  Tmax: 1 h
[4]; [11]
  AUC(0-t): 6550 ng·h/mL
  Cmax: 1830 ng/mL
  Tmax: 1 h
[4]; male, Sprague-Dawley, rat, selected tissues vs plasma, po, read-out: exposure in selected tissues relative to exposure in plasma
  Kp: 3 to 5
[4]; [12]
  concentration at 0.5 h: 1430 ng/mL
  concentration at 1 h: 1990 ng/mL
  concentration at 2 h: 450 ng/mL
  concentration at 4 h: 1000 ng/mL
  concentration at 6 h: 244 ng/mL
[4]; [13]
  concentration at 0.5 h: 2230 ng/mL
  concentration at 1 h: 3880 ng/mL
  concentration at 2 h: 1510 ng/mL
  concentration at 4 h: 1520 ng/mL
  concentration at 6 h: 466 ng/mL
[4]; [14]
  concentration at 0.5 h: 5720 ng/mL
  concentration at 1 h: 6350 ng/mL
  concentration at 2 h: 5080 ng/mL
  concentration at 4 h: 2420 ng/mL
  concentration at 6 h: 647 ng/mL
[4]; [15]
  concentration at 0.5 h: 775 ng/mL
  concentration at 1 h: 1030 ng/mL
  concentration at 2 h: 290 ng/mL
  concentration at 4 h: 401 ng/mL
  concentration at 6 h: 245 ng/mL
[4]; [16]
  concentration at 0.5 h: 930 ng/mL
  concentration at 1 h: 1160 ng/mL
  concentration at 2 h: 274 ng/mL
  concentration at 4 h: 794 ng/mL
  concentration at 6 h: 510 ng/mL
[4]; male, Sprague-Dawley, rat, Plasma, 24 h, PO, mean
  concentration at 24 h: 18.4 ng/mL
[4]; [17]
  concentration at 0.5 h: 1660 ng/mL
  concentration at 1 h: 1830 ng/mL
  concentration at 2 h: 510 ng/mL
  concentration at 4 h: 989 ng/mL
  concentration at 6 h: 690 ng/mL
[4]; male, Sprague-Dawley, rat, tissues, comparable to plasma, PO
  Tmax: 1 h
Human tau mice [5]
  tactile allodynia: significantly ameliorated
